From ChEMBL document CHEMBL1156409, “Durhamycin A, a potent inhibitor of HIV Tat transactivation” (J Nat Prod, 2002)

Tests used:
[1] = test system: Human immunodeficiency virus; assay: Antiviral activity against HIV H9/3B in HeLa P4/P5 cells after 48 hrs by vertical assay; format: functional, organism-based; conditions: Human immunodeficiency virus 1, H9/3B
[2] = Cytotoxicity against human HeLa P4/P5 cells up to 5 uM; format: cell-based
[3] = Inhibition of HIV Tat transactivation in human 63A9 cells by luciferase based reporter gene assay; format: cell-based, Human immunodeficiency virus
[4] = Cytotoxicity against human 63A9 cells at 25 uM by MTS assay; format: cell-based; conditions: 63a9, 25 µM
[5] = Human immunodeficiency virus 1, 63A9, read-out: IC50

| Compound | IC50 [1] | Activity [2] | IC50 [3, 5] | Activity [4] | IC50 ([3]; 63a9) |
| --- | --- | --- | --- | --- | --- |
| CCC(C)c1c(O[C@H]2C[C@@H](O[C@H]3C[C@@H](O)[C@H](O)[C@@H](C)O3)[C@H](O)[C@@H](C)O2)cc2cc3c(c(O)c2c1O)C(=O)C(O[C@H]1C[C@@H](O[C@H]2C[C@@H](O[C@H]4C[C@@H](O[C@H]5C[C@@H](O)[C@H](O)[C@@H](C)O5)[C@H](O)[C@@H](C)O4)[C@@H](OC(C)=O)[C@@H](C)O2)[C@H](O)[C@@H](C)O1)C(C(OC)C(=O)C(O)C(C)O)C3 (stereo partly specified) [DURHAMYCIN A] | 11.6 nM | Non-toxic | 4.8 nM | Non-toxic |  |
| CCC(C)c1c(O)cc2cc3c(c(O)c2c1O)C(=O)C(O)C(C(OC)C(=O)C(O)C(C)O)C3 (stereo unspecified) |  |  |  |  | Not Active |
| CCC(C)c1c(O[C@H]2C[C@@H](O[C@H]3C[C@@H](O)[C@H](O)[C@@H](C)O3)[C@H](O)[C@@H](C)O2)cc2cc3c(c(O)c2c1O)C(=O)C(O[C@H]1C[C@@H](O[C@H]2C[C@@H](O[C@H]4C[C@@H](O)[C@H](O)[C@@H](C)O4)[C@@H](OC(C)=O)[C@@H](C)O2)[C@H](O)[C@@H](C)O1)C(C(OC)C(=O)C(O)C(C)O)C3 (stereo partly specified) [DURHAMYCIN B] |  |  | 48 nM |  |  |
